Patent US12162867B2, “Inhibitors of RNA helicase DHX9 and uses thereof” (ACCENT THERAPEUTICS, INC., priority 2022, dated 2024)
Where two headings read alike, the source gives them in different places.

Columns and labels:
Assay type in all cases: cell-based
LS411N cells = test: DHX9 cellular proliferation assay (CellTiter-Glo), LS411N (CRC-MSI); settings: Homo sapiens, LS-411N, read-out: LS411N (CRC-MSI-H) Antiproliferative IC50
NCI-H747 cells = test: DHX9 cellular proliferation assay (CellTiter-Glo), NCI-H747 (CRC-MSS); settings: Homo sapiens
[1] = system: circBRIP1 in HCT116 cells; test: DHX9 circBRIP1 cellular target engagement SYBR Green assay (qPCR); settings: Homo sapiens, HCT-116, circBRIP1, HCT116 cells, read-out: DHX9 Cellular Target Engagement EC50
[2] = NCI-H747, NCI-H747, performed at Pharmaron, read-out: H747 (CRC-MSS) Antiproliferative IC50
[3] = LS411N, CRC-MSI-H, performed at Pharmaron
[4] = NCI-H747, NCI-H747, CRC-MSS, performed at Pharmaron, read-out: H747 (CRC-MSS) Antiproliferative IC50

Row | IC50 (NCI-H747 cells; [2]) | EC50 ([1]; ^+ SyBr assay was used) | IC50 (NCI-H747 cells; [4]) | EC50 ([1]; SyBr assay (marked ^+)) | Structure (SMILES) | IC50 (LS411N cells; LS411N, performed at Pharmaron) | IC50 (LS411N cells; [3]) | IC50 (LS411N cells) | IC50 (NCI-H747 cells; NCI-H747, read-out: H747 (CRC-MSS) Antiproliferative IC50)
1 | > 10000 nM | 67.4 nM | – | – | Cc1cc(C(=O)Nc2cc(Cl)cc(NS(C)(=O)=O)c2)cn1-c1ncc(N2CC(F)(F)C2)cn1 [Example 418] | 139 nM | – | – | –
2 | – | – | > 10000 nM | 95.7 nM | Cn1cc(C(=O)Nc2cc(Cl)cc(NS(C)(=O)=O)c2)cc1-c1ncc(F)cn1 [Example 171, N-(3-chloro-5-(methylsulfonamido)phenyl)-5-(5-fluoropyrimidin-2-yl)-1-methyl-1H-pyrrole-3-carboxamide] | – | 372 nM | – | –
3 | – | – | 8670 nM | 13 nM | Cc1sc(C(=O)Nc2cc(Cl)cc(NS(C)(=O)=O)c2)cc1-c1ncccc1OCc1ccccc1 [Example 34] | – | 14.1 nM | – | –
4 | > 10000 nM | 2 nM | – | – | Cc1sc(C(=O)Nc2cc(Cl)cc(NS(C)(=O)=O)c2)cc1-c1ncccc1OCc1cncc(F)c1 [Example 621] | 8.7 nM | – | – | –
5 | > 10000 nM | 46 nM | – | – | COCCOc1ccc(-n2cc(C(=O)Nc3cc(Cl)cc(NS(C)(=O)=O)c3)cc2C)nc1 [Example 442] | 123 nM | – | – | –
6 | – | – | > 10000 nM | 54.2 nM | Cc1sc(C(=O)Nc2cc(Br)cc(NS(C)(=O)=O)c2)cc1-c1ccccn1 [Example 23] | – | 53.1 nM | – | –
7 | > 10000 nM | 73.5 nM | – | – | CS(=O)(=O)Nc1cc(Cl)cc(NC(=O)c2cc(CO)n(-c3ncccc3OCc3cncc(F)c3)c2)c1 [Example 723] | 733 nM | – | – | –
8 | – | – | > 10000 nM | 40.3 nM | Cc1sc(C(=O)Nc2cc(Cl)cc(NS(C)(=O)=O)c2)cc1-c1ncccc1O [Example 227] | – | 879 nM | – | –
9 | – | – | 8560 nM | 103 nM | CS(=O)(=O)Nc1cc(Cl)cc(NC(=O)c2cnn(-c3ncc(F)cc3OCc3cccc(F)c3)c2)c1 [Example 202] | – | 111 nM | – | –
10 | – | – | > 10000 nM | 125 nM | CCOc1cnc(-n2cc(C(=O)Nc3cc(Cl)cc(NS(C)(=O)=O)c3)cc2C)nc1 [Example 208] | – | 218 nM | – | –
11 | > 10000 nM | 21.2 nM | – | – | Cc1cc(C(=O)Nc2cc(Cl)cc(NS(C)(=O)=O)c2)cn1-c1ccc(N2CCCC2=O)cn1 [Example 410] | 373 nM | – | – | –
12 | – | – | > 10000 nM | 63.1 nM | CS(=O)(=O)Nc1cc(Cl)cc(NC(=O)c2cnn(-c3ncccc3OCc3cccc(F)c3)c2)c1 [Example 65] | – | 109 nM | – | –
13 | – | – | > 10000 nM | > 10000 nM | CCc1cn2cc(C(=O)Nc3cc(Cl)cc(NS(C)(=O)=O)c3)ccc2n1 [Example 132] | – | > 10000 nM | – | –
14 | – | – | > 10000 nM | 830 nM | CS(=O)(=O)Nc1cc(Cl)cc(NC(=O)c2cnn(-c3ccccn3)c2)c1 [Example 37] | – | 3470 nM | – | –
15 | – | – | > 10000 nM | 47.8 nM | CCOc1cnc(-c2csc(C(=O)Nc3cc(Cl)cc(NS(C)(=O)=O)c3)c2)nc1 [Example 342] | – | 133 nM | – | –
16 | – | – | > 10000 nM | 23.7 nM | CS(=O)(=O)Nc1cc(Cl)cc(NC(=O)c2cc(-c3ncccc3OCc3cnco3)cs2)c1 [Example 215] | – | 118 nM | – | –
17 | – | – | > 10000 nM | 2110 nM | Cc1cccc(O)c1-c1csc(C(=O)Nc2cc(Br)cc(NS(C)(=O)=O)c2)c1 [Example 19] | – | 1080 nM | – | –
18 | – | – | > 10000 nM | 53.9 nM | Cc1ccc(OCc2cccc(F)c2)c(-n2cc(C(=O)Nc3cc(Cl)cc(NS(C)(=O)=O)c3)cn2)n1 [Example 204] | – | 54.8 nM | – | –
19 | – | – | > 10000 nM | 131 nM | Cc1cc(C(=O)Nc2cc(Cl)cc(NS(C)(=O)=O)c2)cn1-c1ccc(N2CCN(C(=O)C(C)C)CC2)cn1 [Example 283] | – | 92.3 nM | – | –

Row | IC50 (NCI-H747 cells; [2]) | EC50 ([1]; ^+ SyBr assay was used) | IC50 (NCI-H747 cells; [4]) | EC50 ([1]; SyBr assay (marked ^+)) | Structure (SMILES) | IC50 (LS411N cells; LS411N, performed at Pharmaron) | IC50 (LS411N cells; [3]) | IC50 (LS411N cells) | IC50 (NCI-H747 cells; NCI-H747, read-out: H747 (CRC-MSS) Antiproliferative IC50)
20 | – | – | > 10000 nM | 103 nM | Cc1cc(C(=O)Nc2cc(Cl)cc(NS(C)(=O)=O)c2)cn1-c1ccc(N2CCN(C(=O)N(C)C)CC2)cn1 [Example 284] | – | 161 nM | – | –
21 | – | – | > 10000 nM | 107 nM | CS(=O)(=O)Nc1cc(Cl)cc(NC(=O)c2cnn(-c3ncccc3OCc3cccc(Cl)c3)c2)c1 [Example 70] | – | 375 nM | – | –
22 | – | – | > 10000 nM | 60.9 nM | CS(=O)(=O)Nc1cc(Cl)cc(NC(=O)c2cc(-c3ncccn3)cs2)c1 [Example 26] | – | 217 nM | – | –
23 | – | – | > 10000 nM | 161 nM | CS(=O)(=O)Nc1cc(Cl)cc(NC(=O)c2cnn(-c3ncccc3OCc3cncc(F)c3)c2)c1 [Example 186] | – | 2440 nM | – | –
24 | – | – | > 10000 nM | 30 nM | Cc1cc(C(=O)Nc2cc(Cl)cc(NS(C)(=O)=O)c2)cn1-c1ccc(N2CCOCC2)cn1 [Example 93] | – | 253 nM | – | –
25 | – | – | > 10000 nM | 297 nM | CS(=O)(=O)Nc1cc(Br)cc(NC(=O)c2cnn(-c3cc(C#N)ccc3OCc3ccccc3)c2)c1 [Example 67] | – | 1050 nM | – | –
26 | – | – | 8380 nM | 73.3 nM | CS(=O)(=O)Nc1cc(Cl)cc(NC(=O)c2cc(-c3ncccc3OCc3cccnc3)n(CC(F)(F)F)c2)c1 [Example 185] | – | 139 nM | – | –
27 | – | – | > 10000 nM | 70 nM | CS(=O)(=O)Nc1cc(Cl)cc(NC(=O)c2cc(-c3ccccn3)c(CO)s2)c1 [Example 163, N-(3-chloro-5-(methylsulfonamido)phenyl)-5-(hydroxymethyl)-4-(pyridin-2-yl)thiophene-2-carboxamide] | – | 609 nM | – | –
28 | – | – | > 10000 nM | 53.3 nM | Cn1cc(C(=O)Nc2cc(Cl)cc(NS(C)(=O)=O)c2)cc1-c1ncccc1OCc1nccs1 [Example 279] | – | 81.1 nM | – | –
29 | – | – | > 10000 nM | 260 nM | CS(=O)(=O)Nc1cc(Br)cc(NC(=O)c2cc(-c3ccccc3O)cs2)c1 [Example 21] | – | 791 nM | – | –
30 | – | – | > 10000 nM | 64.2 nM | Cc1cc(C(=O)Nc2cc(Cl)cc(NS(C)(=O)=O)c2)cn1-c1ccc(N2CC3(COC3)C2)cn1 [Example 276] | – | 61.7 nM | – | –
31 | – | – | > 10000 nM | 489 nM | Cc1cccnc1-n1cc(C(=O)Nc2cc(Cl)cc(NS(C)(=O)=O)c2)cc1C [Example 130] | – | 1160 nM | – | –
32 | 7010 nM | 16.2 nM | – | – | Cn1cc(C(=O)Nc2cc(Cl)cc(NS(C)(=O)=O)c2)cc1-c1ccc(N2CC(F)C2)cn1 [Example 539] | 98.3 nM | – | – | –
33 | > 10000 nM | 123 nM | – | – | COc1cnc(-n2cc(C(=O)Nc3cc(Cl)cc(NS(C)(=O)=O)c3)cc2C)nc1 [Example 441] | 130 nM | – | – | –
34 | – | – | 5690 nM | 91.8 nM | CCOc1ccc(-c2csc(C(=O)Nc3cc(Cl)cc(NS(C)(=O)=O)c3)c2)nc1 [Example 339] | – | 341 nM | – | –
35 | – | – | > 10000 nM | 84.6 nM | Cc1sc(C(=O)Nc2cc(Cl)cc(NS(C)(=O)=O)c2)cc1-c1ncc(F)cn1 [Example 336] | – | 146 nM | – | –
36 | – | – | > 10000 nM | 48 nM | CS(=O)(=O)Nc1cc(Br)cc(NC(=O)c2cc(-c3ncccn3)cs2)c1 [Example 25] | – | 99.1 nM | – | –
37 | – | – | > 10000 nM | 12.7 nM | CS(=O)(=O)Nc1cc(Cl)cc(NC(=O)c2cc(-c3ncccc3OCc3ccccc3)c(CO)s2)c1 [Example 216] | – | 38.5 nM | – | –

Row | Structure (SMILES) | IC50 (NCI-H747 cells; [2]) | EC50 ([1]; ^+ SyBr assay was used) | IC50 (NCI-H747 cells; [4]) | EC50 ([1]; SyBr assay (marked ^+)) | IC50 (LS411N cells; LS411N, performed at Pharmaron) | IC50 (LS411N cells; [3]) | IC50 (LS411N cells) | IC50 (NCI-H747 cells; NCI-H747, read-out: H747 (CRC-MSS) Antiproliferative IC50)
38 | Cc1cccnc1-c1cc(C(=O)Nc2cc(Br)cc(NS(C)(=O)=O)c2)cn1C [Example 84, N-(3-bromo-5-(methylsulfonamido)phenyl)-1-methyl-5-(3-methylpyridin-2-yl)-1H-pyrrole-3-carboxamide] | – | – | – | 194 nM | – | – | 385 nM | > 10000 nM
